Earlier results, collected in patent publication US20030091531A1, “Method and composition for insect and animal control” (priority 2001, published 2003).

Tests used:
[1] = classified by the EPA
[2] = unstabilised active; degrades rapidly under ultraviolet light, water, oxygen and soil microbes

For `CNC(=O)CSP(=S)(OC)OC` [Dimethoate, dimethoate], the EPA carcinogen classification [1] is listed as “group 3 carcinogen”.

In the case of `CCCCCCCCCC(C)=O` [methyl nonyl ketone], the shelf life [2] is listed as “twelve”.
